Patent publication US9717746B2 (priority 2014, dated 2017)

How the values were obtained:
hippocampal slices [1] = test system: hippocampal slices
hippocampal slices [2] = test system: hippocampal slices; remark: listed apart in the source

| Compound | neurotoxicity of the neurotoxicant (PS area) (hippocampal slices [1]) | effect of antidote per se on PS (without neurotoxicant) (hippocampal slices [2]) |
| --- | --- | --- |
| CC[C@@H]1C(=O)OC[C@@H]1Cc1cncn1C [pilocarpine] | neurotoxicity of pilocarpine increases at high potassium concentration |  |
| CCCCCCCCCCCCCCCCCCOCC(COP(=O)([O-])OCC[N+](C)(C)C)OC (racemic) [edelfosine, 1-O-octadecyl-2-O-methyl-rac-glycero-3-phosphocholine] |  | innocuous |
